Laboratory results: ChEMBL document CHEMBL5154747, “Discovery of new carbonic anhydrase IX inhibitors as anticancer agents by toning the hydrophobic and hydrophilic rims of the active site to encounter the dual-tail approach” (Eur J Med Chem, 2022)

Tests used:
PC-3 = assay: Anticancer activity against human PC-3 cells assessed as cell growth inhibition at 10 uM incubated for 48 hrs by SRB assay relative to control; format: functional; settings: read-out: GI
A549 = assay: Anticancer activity against human A549 cells assessed as cell growth inhibition at 10 uM incubated for 48 hrs by SRB assay relative to control; format: functional; settings: read-out: GI
SK-OV-3 = assay: Anticancer activity against human SK-OV-3 cells assessed as cell growth inhibition at 10 uM incubated for 48 hrs by SRB assay relative to control; format: functional; settings: read-out: GI
SK-MEL-5 = assay: Anticancer activity against human SK-MEL-5 cells assessed as cell growth inhibition at 10 uM incubated for 48 hrs by SRB assay relative to control; format: functional; settings: read-out: GI
UACC-257 = assay: Anticancer activity against human UACC-257 cells assessed as cell growth inhibition at 10 uM incubated for 48 hrs by SRB assay relative to control; format: functional; settings: read-out: GI
IGROV-1 = assay: Anticancer activity against human IGROV-1 cells assessed as cell growth inhibition at 10 uM incubated for 48 hrs by SRB assay relative to control; format: functional; settings: read-out: GI
KM12 = assay: Anticancer activity against human KM12 cells assessed as cell growth inhibition at 10 uM incubated for 48 hrs by SRB assay relative to control; format: functional; settings: read-out: GI
CAKI-1 = assay: Anticancer activity against human CAKI-1 cells assessed as cell growth inhibition at 10 uM incubated for 48 hrs by SRB assay relative to control; format: functional; settings: read-out: GI
HCC 2998 = assay: Anticancer activity against human HCC 2998 cells assessed as cell growth inhibition at 10 uM incubated for 48 hrs by SRB assay relative to control; format: functional; settings: read-out: GI
OVCAR-3 = assay: Anticancer activity against human OVCAR-3 cells assessed as cell growth inhibition at 10 uM incubated for 48 hrs by SRB assay relative to control; format: functional; settings: read-out: GI
SF-539 = assay: Anticancer activity against human SF-539 cells assessed as cell growth inhibition at 10 uM incubated for 48 hrs by SRB assay relative to control; format: functional; settings: read-out: GI
NCI-H460 = assay: Anticancer activity against human NCI-H460 cells assessed as cell growth inhibition at 10 uM incubated for 48 hrs by SRB assay relative to control; format: functional; settings: read-out: GI
SK-MEL-2 = assay: Anticancer activity against human SK-MEL-2 cells assessed as cell growth inhibition at 10 uM incubated for 48 hrs by SRB assay relative to control; format: functional; settings: read-out: GI
SNB-75 = assay: Anticancer activity against human SNB-75 cells assessed as cell growth inhibition at 10 uM incubated for 48 hrs by SRB assay relative to control; format: functional; settings: read-out: GI
T47D = assay: Anticancer activity against human T47D cells assessed as cell growth inhibition at 10 uM incubated for 48 hrs by SRB assay relative to control; format: functional; settings: read-out: GI
HCT-116 = assay: Anticancer activity against human HCT-116 cells assessed as cell growth inhibition at 10 uM incubated for 48 hrs by SRB assay relative to control; format: functional; settings: read-out: GI
MDA-MB-231 = assay: Anticancer activity against human MDA-MB-231 cells assessed as cell growth inhibition at 10 uM incubated for 48 hrs by SRB assay relative to control; format: functional; settings: read-out: GI
NCI/ADR-RES = assay: Anticancer activity against human NCI/ADR-RES cells assessed as cell growth inhibition at 10 uM incubated for 48 hrs by SRB assay relative to control; format: functional; settings: read-out: GI
A498 = assay: Anticancer activity against human A498 cells assessed as cell growth inhibition at 10 uM incubated for 48 hrs by SRB assay relative to control; format: functional; settings: read-out: GI
MCF7 = assay: Anticancer activity against human MCF7 cells assessed as cell growth inhibition at 10 uM incubated for 48 hrs by SRB assay relative to control; format: functional; settings: read-out: GI
RPMI-8226 = assay: Anticancer activity against human RPMI-8226 cells assessed as cell growth inhibition at 10 uM incubated for 48 hrs by SRB assay relative to control; format: functional; settings: read-out: GI
NCI-H226 = assay: Anticancer activity against human NCI-H226 cells assessed as cell growth inhibition at 10 uM incubated for 48 hrs by SRB assay relative to control; format: functional; settings: read-out: GI
NCI-H522 = assay: Anticancer activity against human NCI-H522 cells assessed as cell growth inhibition at 10 uM incubated for 48 hrs by SRB assay relative to control; format: functional; settings: read-out: GI
Hs-578T = assay: Anticancer activity against human Hs-578T cells assessed as cell growth inhibition at 10 uM incubated for 48 hrs by SRB assay relative to control; format: functional; settings: read-out: GI
HT-29 = assay: Anticancer activity against human HT-29 cells assessed as cell growth inhibition at 10 uM incubated for 48 hrs by SRB assay relative to control; format: functional; settings: read-out: GI
SF-268 = assay: Anticancer activity against human SF-268 cells assessed as cell growth inhibition at 10 uM incubated for 48 hrs by SRB assay relative to control; format: functional; settings: read-out: GI
HOP-92 = assay: Anticancer activity against human HOP-92 cells assessed as cell growth inhibition at 10 uM incubated for 48 hrs by SRB assay relative to control; format: functional; settings: read-out: GI
HCT-15 = assay: Anticancer activity against human HCT-15 cells assessed as cell growth inhibition at 10 uM incubated for 48 hrs by SRB assay relative to control; format: functional; settings: read-out: GI
Malme-3M = assay: Anticancer activity against human Malme-3M cells assessed as cell growth inhibition at 10 uM incubated for 48 hrs by SRB assay relative to control; format: functional; settings: read-out: GI
LOX IMVI = assay: Anticancer activity against human LOX IMVI cells assessed as cell growth inhibition at 10 uM incubated for 48 hrs by SRB assay relative to control; format: functional; settings: read-out: GI
SW-620 = assay: Anticancer activity against human SW-620 cells assessed as cell growth inhibition at 10 uM incubated for 48 hrs by SRB assay relative to control; format: functional; settings: read-out: GI
ACHN = assay: Anticancer activity against human ACHN cells assessed as cell growth inhibition at 10 uM incubated for 48 hrs by SRB assay relative to control; format: functional; settings: read-out: GI
MDA-MB-468 = assay: Anticancer activity against human MDA-MB-468 cells assessed as cell growth inhibition at 10 uM incubated for 48 hrs by SRB assay relative to control; format: functional; settings: read-out: GI
MDA-MB-435 = assay: Anticancer activity against human MDA-MB-435 cells assessed as cell growth inhibition at 10 uM incubated for 48 hrs by SRB assay relative to control; format: functional; settings: read-out: GI
CCRF-CEM = assay: Anticancer activity against human CCRF-CEM cells assessed as cell growth inhibition at 10 uM incubated for 48 hrs by SRB assay relative to control; format: functional; settings: read-out: GI
SN12C = assay: Anticancer activity against human SN12C cells assessed as cell growth inhibition at 10 uM incubated for 48 hrs by SRB assay relative to control; format: functional; settings: read-out: GI
NCI-H23 = assay: Anticancer activity against human NCI-H23 cells assessed as cell growth inhibition at 10 uM incubated for 48 hrs by SRB assay relative to control; format: functional; settings: read-out: GI
UO-31 = assay: Anticancer activity against human UO-31 cells assessed as cell growth inhibition at 10 uM incubated for 48 hrs by SRB assay relative to control; format: functional; settings: read-out: GI
SR = assay: Anticancer activity against human SR cells assessed as cell growth inhibition at 10 uM incubated for 48 hrs by SRB assay relative to control; format: functional; settings: read-out: GI
Carbonic anhydrase 9 = Carbonic anhydrase 9 (Homo sapiens, UniProt Q16790); assay: Inhibition of recombinant human CA 9 preincubated for 15 mins by phenol red dye based stopped flow CO2 hydration assay

| Structure (SMILES) | inhibition of growth at 10 µM (PC-3) [%] | inhibition of growth at 10 µM (A549) [%] | inhibition of growth at 10 µM (SK-OV-3) [%] | inhibition of growth at 10 µM (SK-MEL-5) [%] | inhibition of growth at 10 µM (UACC-257) [%] | inhibition of growth at 10 µM (IGROV-1) [%] | inhibition of growth at 10 µM (KM12) [%] | inhibition of growth at 10 µM (CAKI-1) [%] | inhibition of growth at 10 µM (HCC 2998) [%] | inhibition of growth at 10 µM (OVCAR-3) [%] | inhibition of growth at 10 µM (SF-539) [%] | inhibition of growth at 10 µM (NCI-H460) [%] | inhibition of growth at 10 µM (SK-MEL-2) [%] | inhibition of growth at 10 µM (SNB-75) [%] | inhibition of growth at 10 µM (T47D) [%] | inhibition of growth at 10 µM (HCT-116) [%] | inhibition of growth at 10 µM (MDA-MB-231) [%] | inhibition of growth at 10 µM (NCI/ADR-RES) [%] | inhibition of growth at 10 µM (MCF7) [%] | inhibition of growth at 10 µM (RPMI-8226) [%] | other results |
| --- | --- | --- | --- | --- | --- | --- | --- | --- | --- | --- | --- | --- | --- | --- | --- | --- | --- | --- | --- | --- | --- |
| NNc1nc(Nc2ccccc2)nc(Nc2ccc(S(N)(=O)=O)cc2)n1 | < 10 | < 10 | < 10 | < 10 | < 10 | < 10 | < 10 | < 10 | < 10 | < 10 | < 10 | < 10 | < 10 | < 10 | < 10 | < 10 | < 10 | < 10 | < 10 | < 10 | inhibition of growth at 10 µM (A498): < 10%; inhibition of growth at 10 µM (NCI-H226): < 10%; inhibition of growth at 10 µM (NCI-H522): < 10%; inhibition of growth at 10 µM (Hs-578T): < 10%; inhibition of growth at 10 µM (HT-29): < 10%; inhibition of growth at 10 µM (SF-268): < 10%; inhibition of growth at 10 µM (HOP-92): < 10%; inhibition of growth at 10 µM (HCT-15): < 10%; inhibition of growth at 10 µM (Malme-3M): < 10%; inhibition of growth at 10 µM (LOX IMVI): < 10%; inhibition of growth at 10 µM (SW-620): < 10%; inhibition of growth at 10 µM (ACHN): < 10%; inhibition of growth at 10 µM (MDA-MB-468): < 10%; inhibition of growth at 10 µM (MDA-MB-435): < 10%; inhibition of growth at 10 µM (CCRF-CEM): < 10%; inhibition of growth at 10 µM (SN12C): < 10%; inhibition of growth at 10 µM (NCI-H23): < 10%; inhibition of growth at 10 µM (UO-31): 13%; inhibition of growth at 10 µM (SR): 32% |
| NS(=O)(=O)c1ccc(Nc2nc(N/N=C/c3ccc(F)cc3)nc(Nc3ccccc3)n2)cc1 | 60 | 92 | 28 | 61 | 52 | 56 | 69 | 43 | 44 | 69 | 37 | 34 | 109 | < 10 | 79 | 55 | 38 | < 10 | 71 | 49 | inhibition of growth at 10 µM (NCI-H226): 49%; inhibition of growth at 10 µM (NCI-H522): 84%; Ki (Carbonic anhydrase 9): 61.3 nM; inhibition of growth at 10 µM (Hs-578T): 59%; inhibition of growth at 10 µM (HT-29): 95%; inhibition of growth at 10 µM (SF-268): 58%; inhibition of growth at 10 µM (HOP-92): 36%; inhibition of growth at 10 µM (HCT-15): 20%; inhibition of growth at 10 µM (Malme-3M): 42%; inhibition of growth at 10 µM (LOX IMVI): 39%; inhibition of growth at 10 µM (SW-620): 24%; inhibition of growth at 10 µM (ACHN): 19%; inhibition of growth at 10 µM (MDA-MB-468): 45%; inhibition of growth at 10 µM (MDA-MB-435): 46%; inhibition of growth at 10 µM (CCRF-CEM): 80%; inhibition of growth at 10 µM (SN12C): 49%; inhibition of growth at 10 µM (NCI-H23): 45%; inhibition of growth at 10 µM (UO-31): 33%; inhibition of growth at 10 µM (SR): 42% |
